Some test systems named below: DU-145 prostate; EKVX NSCLC; HCC-2998 colon; HCT-15 colon; HL-60(TB) leukemia; K-562 leukemia; OVCAR-3 ovarian; OVCAR-8 ovarian; RPMI-8226 leukemia; UO-31 renal.
Experiment in all cases: DTP human tumour cell line panel, 48 h

Molecules are shown by their SMILES. Values joined by “and” are separate entries in the source; they are usually repeats but may differ in a detail not shown here. Equal values may be shown once.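 Cells were grown in 96-well plates and exposed to each compound for 48 hours at five concentrations; endpoints were interpolated linearly between bracketing concentrations, or set to the highest concentration if not reached. GI50 is the concentration that inhibits growth by half. TGI: total growth inhibition.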

The term TGI denotes the concentration at which net growth stops. A high value points to lower sensitivity of the cells. As to `N#C/C(=C\c1ccc2ccccc2c1)C(=O)c1ccccc1`, the TGI was more than 100 µM with DU-145 prostate; more than 100 µM with EKVX NSCLC; more than 100 µM in the test on HCC-2998 colon; more than 100 µM with HCT-15 colon; 71.9 µM in the test on HL-60(TB) leukemia; 99.2 µM in the test on K-562 leukemia. Also, the TGI was more than 94.4 µM in the test with OVCAR-3 ovarian, more than 46.4 µM in the test with OVCAR-8 ovarian, 97.8 µM with RPMI-8226 leukemia and more than 100 µM in the test with UO-31 renal.

Take `NS(=O)(=O)c1ccc(N=Nc2c(O)c(C(=O)O)cc3ccccc23)cc1`: the TGI in the test with DU-145 prostate, with EKVX NSCLC, with HCC-2998 colon, with HCT-15 colon, in the test with HL-60(TB) leukemia and with K-562 leukemia was more than 100 µM in each case. Moreover, the TGI in the test with OVCAR-3 ovarian, in the test on OVCAR-8 ovarian, in the test on RPMI-8226 leukemia and with UO-31 renal was more than 100 µM each time.

As usually defined, the GI50 is the concentration giving 50% growth inhibition. In the case of `NC(N)=N/N=C/c1c(Cl)cccc1Cl`, the GI50 is 23.1 µM in the test on DU-145 prostate; 15.9 µM in the test with EKVX NSCLC; 14.8 µM in the test with HCC-2998 colon; 26.1 µM in the test with HCT-15 colon; 21.8 µM with HL-60(TB) leukemia; 24.1 µM in the test with K-562 leukemia. Besides, the GI50 in the test with OVCAR-3 ovarian was 28.1 µM; in the test on OVCAR-8 ovarian, 30 µM; in the test on RPMI-8226 leukemia, 40.7 µM; in the test with UO-31 renal, 16.5 µM. Also, the TGI is more than 100 µM in the test on DU-145 prostate; 47.5 µM with EKVX NSCLC; 28.6 µM with HCC-2998 colon; more than 100 µM in the test with HCT-15 colon; 50.9 µM in the test on HL-60(TB) leukemia; 63.1 µM in the test on K-562 leukemia. The total growth inhibition concentration (TGI) with OVCAR-3 ovarian is more than 100 µM; in the test on OVCAR-8 ovarian, more than 100 µM; with RPMI-8226 leukemia it was more than 100 µM; in the test with UO-31 renal, 64.7 µM.

Regarding `CCn1c(O)c(/C=N/NC(=O)C(C)c2ccc(CC(C)C)cc2)sc1=S` (stereo unspecified), the GI50 is 0.365 µM with DU-145 prostate; 0.596 µM in the test with EKVX NSCLC; 0.839 µM in the test with HCC-2998 colon; 0.379 µM in the test on HCT-15 colon; 0.312 µM in the test with HL-60(TB) leukemia; 0.282 µM in the test on K-562 leukemia. In addition, the GI50 with OVCAR-3 ovarian is 0.272 µM; in the test on OVCAR-8 ovarian, 0.493 µM; in the test with RPMI-8226 leukemia it was 0.425 µM; in the test with UO-31 renal it was 0.483 µM. In addition, the TGI in the test on DU-145 prostate is more than 22.1 µM; with EKVX NSCLC, more than 46 µM; with HCC-2998 colon it was 13.7 µM; in the test with HCT-15 colon, more than 35.4 µM; in the test with HL-60(TB) leukemia it was 1.52 µM; in the test with K-562 leukemia, more than 48.4 µM. In addition, the TGI was 3.97 µM in the test on OVCAR-3 ovarian, more than 100 µM in the test with OVCAR-8 ovarian, 4.83 µM in the test on RPMI-8226 leukemia and 16.8 µM in the test with UO-31 renal.

`C/C(N=NC(=S)N1CC2CCC(CC2)C1)=C1\C=CC=CN1O`: the TGI is more than 100 µM in the test on DU-145 prostate; more than 65.9 µM in the test on EKVX NSCLC; more than 100 µM in the test on HCC-2998 colon; more than 100 µM in the test with HCT-15 colon; 3.54 µM in the test with HL-60(TB) leukemia; more than 46.8 µM in the test on K-562 leukemia. Moreover, the TGI in the test on OVCAR-8 ovarian was more than 100 µM; in the test on RPMI-8226 leukemia it was more than 39.2 µM; in the test with UO-31 renal, 43 µM.

As to `CCCC(=O)Nc1cn(COC)c(C(=O)N2C[C@@H]3C[C@]34C2=CC(=O)c2[nH]cc(C)c24)n1`, the GI50 in the test with DU-145 prostate is 3.99 µM; with EKVX NSCLC, 14.8 µM; in the test with HCC-2998 colon it was 6.23 µM; with K-562 leukemia, 3.02 µM; with OVCAR-3 ovarian, 2.98 µM; in the test with RPMI-8226 leukemia it was 1.87 µM. For the same compound, the GI50 in the test on UO-31 renal is 16.9 µM. For the same compound, the TGI was 12.7 µM and > 100 µM in the test on DU-145 prostate; > 5 µM and 38.2 µM with EKVX NSCLC; 13.1 µM and 19.1 µM with HCC-2998 colon; 50 µM and 38.9 µM in the test with HCT-15 colon; 4.9 µM with HL-60(TB) leukemia; 50 µM and > 100 µM in the test on K-562 leukemia. For the same compound, the TGI in the test with OVCAR-3 ovarian was 27.2 µM and 7.03 µM; in the test with OVCAR-8 ovarian, 12.8 µM and 14 µM; in the test with RPMI-8226 leukemia, 41.5 µM and 6.75 µM; in the test on UO-31 renal, 30.3 µM and 57.3 µM.

Take `NC(N)=NCCCC(=O)O`: the TGI with DU-145 prostate, in the test with EKVX NSCLC, in the test on HCT-15 colon, in the test with HL-60(TB) leukemia, with K-562 leukemia and with OVCAR-3 ovarian was more than 100 µM each time. The concentration for total growth inhibition (TGI) with OVCAR-8 ovarian, in the test with RPMI-8226 leukemia and with UO-31 renal was more than 100 µM each time.

In the case of `NNC(=O)CNc1cccc(Br)c1`, the concentration for total growth inhibition (TGI) with DU-145 prostate, in the test with EKVX NSCLC, in the test on HCC-2998 colon, in the test with HCT-15 colon, with HL-60(TB) leukemia and in the test with K-562 leukemia was more than 100 µM each time. The concentration for total growth inhibition (TGI) with OVCAR-3 ovarian, with OVCAR-8 ovarian, in the test with RPMI-8226 leukemia and in the test on UO-31 renal was more than 100 µM each time.

`CCN1CCN(c2cc(C)c3cc(NC(=O)c4ccc(OC)c(OC)c4)ccc3n2)CC1`: the GI50 in the test with DU-145 prostate is more than 60.6 µM; in the test on HCC-2998 colon, more than 57.3 µM; in the test with HCT-15 colon, 3.02 µM; with HL-60(TB) leukemia, 4.19 µM; in the test on K-562 leukemia it was 2.75 µM; in the test with OVCAR-3 ovarian it was 0.528 µM. Also, the GI50 is 50.7 µM in the test on OVCAR-8 ovarian, 2.68 µM in the test on RPMI-8226 leukemia and more than 37.4 µM with UO-31 renal. In addition, the TGI in the test with DU-145 prostate was more than 100 µM; in the test with HCC-2998 colon, more than 100 µM; with HCT-15 colon, more than 100 µM; in the test with HL-60(TB) leukemia, more than 44.8 µM; with K-562 leukemia, more than 100 µM; with OVCAR-3 ovarian it was 20.1 µM. The results for the TGI in the test with OVCAR-8 ovarian, with RPMI-8226 leukemia and in the test with UO-31 renal were more than 100 µM, 29.4 µM and more than 73.2 µM, respectively.

In the case of `CCOc1ccc(/C=C2\N=C(c3ccc([N+](=O)[O-])cc3)OC2=O)cc1`, the total growth inhibition concentration (TGI) in the test on DU-145 prostate, in the test with EKVX NSCLC, with HCC-2998 colon, in the test with HCT-15 colon, with HL-60(TB) leukemia and in the test on K-562 leukemia was more than 100 µM throughout. Besides, the TGI with OVCAR-3 ovarian, in the test with OVCAR-8 ovarian and with RPMI-8226 leukemia was more than 100 µM each time.

With `C=CCC1(c2ccc(OC)cc2)C=CC(=O)CC1` (stereo unspecified), the TGI in the test with DU-145 prostate, in the test on EKVX NSCLC, with HCC-2998 colon, in the test with HCT-15 colon, in the test on HL-60(TB) leukemia and in the test on K-562 leukemia was more than 100 µM throughout. In addition, the TGI in the test with OVCAR-3 ovarian, in the test on OVCAR-8 ovarian and in the test with UO-31 renal was more than 100 µM throughout.

Source of the values: PubChem BioAssay (NCI).
